The source of these data is patent US20050255493A1, “Molecular targeting of the IGF-1 receptor” (priority 2002, published 2005).

One data set has as its system IGF1R mRNA. Put plainly: Oligonucleotide scanning array hybridisation with labelled transcript. Conditions: for Hybridisation to IGF1R mRNA on scanning array: 37° C. (and 23° C.); for Rel hyb intensity: relative to the most strongly hybridising sequence on the array; for Hyb intensity: scanning array probed with labelled IGF1R mRNA. The data set is classed as binding, human. The procedure:
Scanning arrays complementary to the region of the IGF1R mRNA from position 537-685 were prepared using the standard techniques described in Southern E. M. et al., Nucleic Acids Res., 1994, 22(8): 1368-1373; and Sohail, M. and Southern, E. M. “Using oligonucleotide scanning arrays to find effective antisense reagents”, Methods in Molecular Biology, vol. 170: DNA Arrays: Methods and Protocols, Ed J. B. Rampal, Humana Press Inc., Totowa, N.J.
The scanning arrays comprise sets of oligonucleotides of various lengths. A series of oligonucleotides, complementary to the target mRNA, is made by sequential coupling of nucleotides to a solid surface. The DNA synthesis reagents are applied to a confined area on the surface of the solid support using a mask. The mask is shifted along the surface after each round of coupling, resulting in a series of oligonucleotides each complementary to a region of the target sequence.
• 2. Remove 1 μL for quantitation (see below). • 3. Remove unincorporated label by Sephadex® G25 column chromatography (see Note 11). • 4. Save 1 μL of the purified transcript for quantitation (see below). • 5. Check the integrity of the transcript by denaturing polyacrylamide gel electrophoresis (10). • 6. Add 10 μL of the scintillation fluid to the samples saved in Steps 2 and 4. • 7. Mix by vortexing and count the samples in a scintillation counter for 1 min. • 8. Calculate the percent incorporation: [formula] • 9. Calculate the amount of RNA made: [formula] Hybridisation to Arrays Made on Polypropylene • 1. Place the array in the hybridisation tube, coiling it in a spiral. • 2. Dilute the radiolabelled transcript in an appropriate volume (10-20 mL depending upon the size of the array and the hybridisation tube) of hybridisation buffer. The mix should cover the array along the length of the tube. • 3. Place items 1 and 2 in the oven at desired temperature for 30 min. Also put approximately 100 mL of the hybridisation buffer in the oven: this is to be used to wash the array at the end of hybridisation. • 4. Pour the hybridisation mix into the tube containing the array and hybridise for 3-4 h. • 5. Remove the hybridisation mix. Briefly wash the array with the hybridisation buffer from Step 3, air dry, cover with cling film and expose to a storage phosphor screen for 16-20 h (see Note 12). • 6. Scan the screen on PhosphorImager or STORM and analyse the image using xvseq (see below). Hybridisation to Arrays Made on Glass • 1. Clean the non-array glass plate with acetone and ethanol to ensure it is grease-free and siliconise it by treatment with dimethyl dichlorosilane solution and place it in lidded box. Also place moist paper towel in the box. • 2. Dilute the radiolabelled transcript in an appropriate volume of the hybridisation buffer (for example, for an array of 250 mm×50 mm use 500-750 μL). • 3. Place items 1 and 2 in an incubator at desired temprature for 30 min. Also put approximately 100 mL of the hybridisation buffer in the oven: this is to be used to wash the array at the end of hybridisation. • 4. Using a micropipette, pipette the hybridisation mix in a line evenly along the length of the non-array glass plate, avoiding formation of air bubbles. • 5. Starting at one end, carefully place the scanning array (face down) on top of the hybridisation mix. The mix will spread out and form a thin film between the two plates. Incubate for 3-4 h. • 6. Separate the plates from each other and wash the array plate with hybridisation buffer to remove unbound mix. Drain the plate, air dry, cover with cling film and expose to a storage phosphor screen for 16-20 h. • 7. Scan the screen on PhosphorImager or STORM and analyse the image using xvseq (see below). Alternative Hybridisation Protocol for Glass or Polypropylene • 1. Assemble with clips the array plate (or polypropylene array pasted with PhotoMount™ on a glass plate) and the non-array plate, using rubber tubing as spacers on two sides. • 2. […]

A further data set concerns IGF1R. As to the kind of experiment: IGF1R level by immunoblotting in transfected MDA-231 cells. The data set is classed as cell-based, human. Conditions: for IGF1R Protein Level (% control): MDA-231 cells, 48 hr, vs scrambled control. The procedure:
(§1) The human and murine cell lines used in this study were cultured in RPMI 1640 plus 10% FCS at 37° C. in a humidified atmosphere of 5% CO2. The cultures were negative when tested for Mycoplasma infection. Cultures were passaged the day before transfection to achieve 30-50% confluence the following day. Initial transfections of ASOs used 1-2.5 μg/ml Cytofectin (Glen Research, Sterling, Va.), according to the manufacturer's instructions. Latterly Oligofectamine (Life Sciences) has been used for all ASO and RNAi transfections. The method was as described (see manufacturer's instructions and www.dharmacon.com) with minor modifications. For transfection of monolayers seeded in 6 well plates, 5 μl phosphorothioate oligonucleotide or RNA duplex at 100× final concentration were mixed with 2501 serum-free Optimem (Gibco-BRL). In a separate tube 2 μl Oligofectamine was mixed with 68 μl Optimem. After 10 min incubation at room temperature the contents of the two tubes were mixed and incubated for a further 25 min at room temperature. Monolayers were washed with 1-2 ml Optimem. To the cells were added 175 μl Optimem followed by the 325 μl complexes. Volumes were scaled up by factors of 2.22 or 6.05 for transfection in 60 mm or 100 mm dishes respectively. Cultures were incubated at 37° C. for 4 hr, and then 50 μl FCS and 3.5 ml RPMI plus 5% FCS were added to each well. After 48 hr incubation effects on IGF1R and IR expression were determined by immunoblotting. Some transfected cultures were serum-starved overnight, divided into two aliquots and treated with 10 nM Long R3-IGF-I (GroPep, Adelaide) or diluent for 30 min at 37° C. prior to lysis.
(§2) IGF1R expression was assessed by immunoblotting as previously described (Macaulay et al 2001). After washing in ice-cold PBS, cells were lysed in 50 mM Hepes pH 7.5, 100 mM NaCl, 10 mM EDTA, 1% Triton-X-100, 4 mM sodium pyrophosphate, 2 mM sodium orthovanadate, 10 mM sodium fluoride, 1 mM PMSF, 2 μg/ml each leupeptin and aprotinin. Lysates were centrifuged for 15 minutes at 14,000 g, the protein concentration of supernatants was measured using BCA assay reagent (Pierce), and equivalent amounts of protein were separated on 7.5% SDS-PAGE gels and transferred to nitrocellulose. Target protein levels were assessed using antibodies to the β-subunit of the IGF1R or IR (Santa Cruz), phospho-Ser 473 Akt or total Akt (Cell Signalling, New England Biolabs) or β-tubulin (Sigma). Activated IGF1R was detected by immunoprecipitation for phosphotyrosine (P-Tyr-100, Cell Signaling Technology). Primary antibodies were detected with HRP-conjugated secondary antibodies (Dako), and ECL Plus (Amersham Pharmacia).
(§3) The ASOs and RNAi duplexes were transfected into MDA-231 cells (human ER negative breast cancer) using Cytofectin or Oligofectamine, as described above. After 48 hr the cells were lysed, and IGF1R and IR levels were measured by immunoblotting. The intensity of the autoradiographic bands was quantified by densitometry, and IGF1R (or IR) levels were corrected for loading differences. The specific IGF1R or IR results are presented as % IGF1R (or IR) level of that in cells transfected with the same concentration of an appropriate control. This was a scrambled control oligonucleotide for ASOs, and an inverted RNA duplex for RNAi.
For orientation: Immunoblotting shows a protein as a band on a membrane.

The subject of the next data set is IR. As to the kind of experiment: IR level by immunoblotting in transfected MDA-231 cells. The format is cell-based, human. The settings on record: for IR Protein Level (% control): 48 hr, vs scrambled control; for IR downregulation: TSS ASO at 300 nM; for Selectivity for IGF1R mRNA versus IR mRNA: compared with TSS ASO. The procedure: as §1, §2, §3
The subject of another data set is MDA-MB-231 cells. As to the kind of experiment: Clonogenic survival and post-irradiation survival (SF2) of transfected MDA-MB-231 cells. The format is cell-based, human. The settings on record: MDA-MB-231, 100 nM. The procedure: FIG. 7 A) MDA-MB-231 cells transfected with 100 nM RNA duplexes were serum-starved overnight and treated with 50 nM IGF-I for 30 min. […] Results represent mean±sem of colony counts in triplicate dishes. Similar results were obtained in two further clonogenic assays. • C) Clonogenic survival of transfected MDA-MB-231 cells that were unirradiated or irradiated at 2Gy. The fraction surviving 2Gy irradiation (SF2) is shown as mean±sem of three independent assays.
The effect of transfection with 100 nM ASO4 or siRNA duplexes R4 and R5, equivalent to strongly and weakly hybridizing ASOs respectively, on colony forming efficiency and post-irradiation survival was also evaluated. […] This in turn illustrates the utility of hybridisation to the scanning ASO array in the selection of siRNA reagents, since relative hybridisation to the array is found to be predictive of activity in RNA interference and biological efficacy.

As to “ASO4: phosphorothioate antisense oligonucleotide GCGGTAGTTGTACTCATTGT, SEQ ID NO:13 (DNA, all phosphorothioate, methylation of C not given here)”, in the data set on IGF1R mRNA, the “Hybridisation to IGF1R mRNA on scanning array” value (from here on “Hybridisation to IGF1R mRNA”) is “hybridised strongly”, the Rel hyb intensity is recorded as >0.59 and the Hyb intensity is >33,162. In the data set on IGF1R (30 nM ASO), the “IGF1R Protein Level (% control)” value is 73 ± 2 % control. Besides, in the data set on IGF1R (300 nM ASO), the “IGF1R Protein Level (% control)” value is listed as 49 ± 2 % control. Moreover, in the data set with IR (30 nM ASO), the “IR Protein Level (% control)” value turned out to be 97 % control. In addition, the “IR Protein Level (% control)” value in the data set on IR (300 nM ASO) is given as 92 % control. In the data set on IR, the “IR downregulation” value is “did not cause significant downregulation of IR” and the “Selectivity for IGF1R mRNA versus IR mRNA” value was “greater selectivity for IGF1R mRNA versus IR mRNA”. Besides, the “Survival after 2Gy irradiation (SF2)” value in the data set with MDA-MB-231 cells (2Gy) is reported as “entirely non-specific”. Further, the “Clonogenic survival” value with MDA-MB-231 cells (unirradiated) is recorded as “entirely non-specific”.
Consider “ASO5: phosphorothioate antisense oligonucleotide GTGGTCCAGCAGCGGTAGTT, SEQ ID NO:15 (DNA, all phosphorothioate, methylation of C not given here)”, for which, in the data set with IGF1R mRNA, the “Hybridisation to IGF1R mRNA” value was “hybridised strongly”, the Rel hyb intensity is >0.07 and the Hyb intensity is >4150.
Take “ASO2 (20mer): phosphorothioate antisense oligonucleotide TGGTCTTCTCACACATCGGC, SEQ ID NO:7 (DNA, all phosphorothioate, methylation of C not given here)”: the “Hybridisation to IGF1R mRNA” value in the data set on IGF1R mRNA is on record as “hybridised strongly”. Besides, the “IGF1R Protein Level (% control)” value in the data set with IGF1R (30 nM ASO) is reported as 84 ± 11 % control; in the data set with IGF1R (300 nM ASO), 47 ± 5 % control.
For “15mer: 15mer sequence described by Wraight et al. which falls within the region 537-685, gtgcagcagcggtag (DNA GTGCAGCAGCGGTAG; further chemistry not given here) [reference compound]”, in the data set on IGF1R mRNA, the Rel hyb intensity was 0.03 and the Hyb intensity is listed as 1695.
Turning to “ASO1 (20mer): phosphorothioate antisense oligonucleotide CGGCTTCTCCTCCATGGTCC, SEQ ID NO:2 (DNA, all phosphorothioate, methylation of C not given here)”, the “Hybridisation to IGF1R mRNA” value with IGF1R mRNA is on record as “hybridised strongly”. The “IGF1R Protein Level (% control)” value worked out at 66 ± 23 % control with IGF1R (30 nM ASO) and 38 ± 6 % control with IGF1R (300 nM ASO). Besides, the “IR Protein Level (% control)” value is recorded as 112 % control in the data set on IR (30 nM ASO) and 135 % control with IR (300 nM ASO). In addition, the “IR downregulation” value with IR is “did not cause significant downregulation of IR”. In addition, the “Selectivity for IGF1R mRNA versus IR mRNA” value with IR is “greater selectivity for IGF1R mRNA versus IR mRNA”.
Turning to “Mut2: R2 duplex with single base pair mutation GCCGAUGUGUGUGAAGACCTT / TTCGGCUACACACACUUCUGG, SEQ ID NO:28 (sense GCCGAUGUGUGUGAAGACCNN; chemistry not fully specified; one strand is listed 3' to 5')”, in the data set with IGF1R (MDA-231 cells, 0.5, 5 and 50 nm (FIG. 5)), the “IGF1R downregulation compared between 21mer duplexes” value is “partially, though not completely, blocked”.
Take “ASO3: phosphorothioate antisense oligonucleotide ATTGTTGATGGTGGTCTTCT, SEQ ID NO:11 (DNA, all phosphorothioate, methylation of C not given here)”: in the data set with IGF1R mRNA, the “Hybridisation to IGF1R mRNA” value was “hybridises only at 23 °C”, the Rel hyb intensity is listed as >0.13 and the Hyb intensity is recorded as >7048. In addition, the “IGF1R Protein Level (% control)” value in the data set with IGF1R (30 nM ASO) was found to be 105 ± 18 % control. In addition, the “IGF1R Protein Level (% control)” value with IGF1R (300 nM ASO) is 104 ± 22 % control.
